The target of the assay is T1, BlrB (Cereibacter sphaeroides, UniProt Q3IYE4).
T1 construct: full-length short BLUF protein, residues 1-140, pET28a(+), His-tag removed by thrombin, E. coli BL21(DE3) glnA knockout; unlabelled and 15N-Gln samples
Briefly: light-induced FTIR difference spectroscopy of the reconstituted holoprotein. Type of assay: binding. The note with it: FAD added for full reconstitution; flavin C4=O band of bound chromophore; pH 8.0; 20 °C.

T1 sequence (Q3IYE4 entry or part of it): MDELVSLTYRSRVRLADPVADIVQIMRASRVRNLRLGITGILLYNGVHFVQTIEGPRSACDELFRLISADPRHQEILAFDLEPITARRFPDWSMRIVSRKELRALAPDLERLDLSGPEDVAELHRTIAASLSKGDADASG

For the compound `Cc1cc2nc3c(=O)[nH]c(=O)nc-3n(C[C@H](O)[C@H](O)[C@H](O)COP(=O)(O)OP(=O)(O)OC[C@H]3O[C@@H](n4cnc5c(N)ncnc54)[C@H](O)[C@@H]3O)c2cc1C` [flavin adenine dinucleotide], the “light-induced FTIR difference spectroscopy of the reconstituted holoprotein” value is listed as “includes strong contributions from the C4=O stretch of flavin with an amide I band”.

The values are drawn from PMC4780082, “Evidence for Tautomerisation of Glutamine in BLUF Blue Light Receptors by Vibrational Spectroscopy and Computational Chemistry” (Scientific Reports, 2016).
